According to patent US9951047B2, “Salt of monocyclic pyridine derivative and crystal thereof” (Eisai R&D Management Co., Ltd., priority 2014, dated 2018):

Tests used:
[1] = tested on: SNU-16 subcutaneous xenograft; assay: Antitumor effect in SNU-16 subcutaneous xenograft model in mice; type: in vivo; details: nude mice, tumor volume on last day
Experimental: Human stomach cancer cell line SNU-16, which had been cultured in an RPMI-1640 medium containing 10% FBS, and penicillin/streptomycin, were adjusted to a concentration of 1×10^8 cells/mL with Hanks' Balanced Salt Solution (GIBCO #24020) to prepare a cell suspension, and the suspension was mixed with MATRIGEL (BD Biosciences, Cat#354234) in a ratio of 1:1 to prepare a cell suspension in a concentration of 5×10^7 cells/mil. The cell suspension was inoculated in a volume of 100 μL into a subcutaneous part of a right flank of nude mice, 6 to 7 weeks of ages (BALB/cAJcl-nu/nu, female, Clea Japan Inc.). Seven days after cell inoculation, the shortest diameter and the longest diameter of a tumor in each mouse were measured by using an electronic digital caliper (Digimatic™ caliper, Mitutoyo Corporation), so as to calculate the volume of the tumor in accordance with the following calculation formula: Tumor volume (mm^3)=Longest diameter (mm)×Shortest diameter (mm)×Shortest diameter (mm)/2
On the basis of the volumes of tumors obtained on the first day of administration, the nude mice were grouped such that averages of the tumor volumes were substantially equal among the groups. Each test substance was dissolved in DMSO, Tween 80 was added thereto to prepare a solution in a 10-fold concentration and the thus prepared solution was stored at the freezer before use. Immediately before the administration, the stock solution was diluted with a 5% glucose solution to obtain a final administration solution (in which a ratio in % among DMSO, Tween 80 and the 5% glucose solution was 3.5:6.5:90). Each evaluation sample was orally administered to test substance administration group at a volume of 20 mL/Kg once a day continuously for 11 days, and in a control group, an administration solvent was orally administered under the same conditions. Incidentally, the experiment was conducted on groups each consisting of 5 mice.
With respect to each of the control group and test substance administration group, a ratio of the weight measured on the final day to the weight measured on the first day (relative body weight: RBW) was calculated. If a ratio of the RBW of the test substance administration group/the RBW of the control group is 0.9 or more, the corresponding test substance administration group was defined as a well-tolerated. In the test substance administration group thus defined as well-tolerated, a ratio of the tumor volume of the test substance-dosing group to the tumor volume of the control group obtained on the last day (T/C) (%) was calculated, and shown in Table 3.

[2] = tested on: human stomach cancer cell line SNU-16; assay: cells; details: SNU-16, 72 h, read-out: SNU-16 (IC50 (nM))
Experimental: Then, 10 μL of Cell Counting Kit-8 (Dojindo Laboratories, CK04) was added to each well, and the resultant was incubated for 1 to 2 hours in a 5% CO2 incubator (37° C.) to cause a color reaction. The absorbance value was measured with ENVISION™ (PerkinElmer Co., Ltd.) at 450 nm. Absorbance value of the wells without adding the test substance was defined as 100% and the absorbance value of the wells containing no cells was defined as 0%. Then, an absorbance ratio in the presence of the test substance was calculated.

SMILES: CNC(=O)n1ccc2cc(Oc3ccnc(NC(=O)c4ccc(C5CCN(CCO)CC5)cc4)c3)c(OCCOC)cc21 [Compound (I), 5-({2-[({4-[1-(2-hydroxyethyl)piperidin-4-yl]phenyl}carbonyl)amino]pyridin-4-yl}oxy)-6-(2-methoxyethoxy)-N-methyl-1H-indole-1-carboxamide]
- T/C (%) ([1]; 6.25 mg/kg orally once a day for 11 days): 49%
- T/C (%) ([1]; 12.5 mg/kg orally once a day for 11 days): 26%
- T/C (%) ([1]; 25 mg/kg orally once a day for 11 days): 16%
- T/C (%) ([1]; 50 mg/kg orally once a day for 11 days): 7%
- IC50 [2]: 4.2 nM
